ChEMBL document CHEMBL1201862, “PubChem BioAssay data set” (2004)
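1) Cells in 96-well plates. 2) Compound, 48 h, 5 concentrations. 3) Linear interpolation between surrounding doses. 4) Unreached endpoint = highest concentration. GI50 marks 50% less growth.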 Activity calls are given as the source filed them. Cut-off read from the data, not from the text of the source: active = GI50 up to about 1.1 µM and inactive = higher.

Key:
Assay in all cases: NCI anticancer screen, dose series, 48 h
HCT-116 = tested on: HCT-116
T47D = tested on: T47D
MDA-MB-231 = tested on: MDA-MB-231
KM12 = tested on: KM12
OVCAR-5 = tested on: OVCAR-5
DU-145 = tested on: DU-145
HOP-92 = tested on: HOP-92
M14 = tested on: M14
SF-268 = tested on: SF-268
UACC-62 = tested on: UACC-62
LOX IMVI = tested on: LOX IMVI
SW-620 = tested on: SW-620
NCI/ADR-RES = tested on: NCI/ADR-RES
MDA-MB-435 = tested on: MDA-MB-435
A549 = tested on: A549
SF-295 = tested on: SF-295
SK-MEL-28 = tested on: SK-MEL-28
UO-31 = tested on: UO-31
OVCAR-8 = tested on: OVCAR-8
NCI-H460 = tested on: NCI-H460

| Compound | GI50 (HCT-116) | GI50 (T47D) | GI50 (MDA-MB-231) | GI50 (KM12) | GI50 (OVCAR-5) | GI50 (DU-145) | GI50 (HOP-92) | GI50 (M14) | GI50 (SF-268) | GI50 (UACC-62) | GI50 (LOX IMVI) | GI50 (SW-620) | GI50 (NCI/ADR-RES) | GI50 (MDA-MB-435) | GI50 (A549) | GI50 (SF-295) | GI50 (SK-MEL-28) | GI50 (UO-31) | GI50 (OVCAR-8) | GI50 (NCI-H460) |
| --- | --- | --- | --- | --- | --- | --- | --- | --- | --- | --- | --- | --- | --- | --- | --- | --- | --- | --- | --- | --- |
| CC1(C)[C@@H](Cn2cc(I)c(=O)[nH]c2=O)CC[C@@]1(C)CO | > 100 µM (inactive) | > 100 µM (inactive) | > 100 µM (inactive) | > 100 µM (inactive) | > 100 µM (inactive) | > 100 µM (inactive) | > 100 µM (inactive) | > 100 µM (inactive) | > 100 µM (inactive) | > 100 µM (inactive) | > 100 µM (inactive) | > 100 µM (inactive) | > 100 µM (inactive) | > 100 µM (inactive) | > 100 µM (inactive) | > 100 µM (inactive) | > 100 µM (inactive) | > 100 µM (inactive) |  |  |
| C[C@H]1OC(=O)[C@@H]2N=NN(Cc3ccccc3)[C@H]12 | > 100 µM (inactive) | > 100 µM (inactive) | > 100 µM (inactive) | > 100 µM (inactive) | > 100 µM (inactive) | > 100 µM (inactive) | > 100 µM (inactive) | > 100 µM (inactive) | > 100 µM (inactive) | > 100 µM (inactive) |  | > 100 µM (inactive) | > 100 µM (inactive) | > 100 µM (inactive) | > 100 µM (inactive) | > 100 µM (inactive) | > 100 µM (inactive) | > 100 µM (inactive) | > 100 µM (inactive) | > 100 µM (inactive) |
| O=C1CC2C=CC(O)C(C1)C2 (centres undefined) | > 100 µM (inactive) | > 100 µM (inactive) | > 100 µM (inactive) | > 100 µM (inactive) | > 100 µM (inactive) | > 100 µM (inactive) |  | > 100 µM (inactive) | > 100 µM (inactive) | > 100 µM (inactive) | > 100 µM (inactive) | > 100 µM (inactive) | > 100 µM (inactive) | > 100 µM (inactive) |  | > 100 µM (inactive) | > 100 µM (inactive) | > 100 µM (inactive) | > 100 µM (inactive) | > 100 µM (inactive) |
| C1=N\c2ccc(cc2)/N=C\c2ccc(cc2)OCc2cccc(n2)COc2ccc/1cc2 | > 100 µM (inactive) | > 100 µM (inactive) | > 100 µM (inactive) | > 100 µM (inactive) | > 100 µM (inactive) | > 100 µM (inactive) | > 100 µM (inactive) | > 100 µM (inactive) | > 100 µM (inactive) | > 100 µM (inactive) |  | > 100 µM (inactive) | > 100 µM (inactive) | > 100 µM (inactive) | > 100 µM (inactive) | > 100 µM (inactive) | > 100 µM (inactive) | > 100 µM (inactive) | > 100 µM (inactive) | > 100 µM (inactive) |
| O=C1c2c(O)cccc2Cc2cc(CO)cc(O)c21 | 2.31 µM (inactive) | 2.96 µM (inactive) | 2.3 µM (inactive) |  | 4.02 µM (inactive) | 3.86 µM (inactive) | 1.61 µM (inactive) | 2.31 µM (inactive) | 2.05 µM (inactive) | 2.09 µM (inactive) |  | 4.06 µM (inactive) | 3.59 µM (inactive) | 2.67 µM (inactive) | 2.92 µM (inactive) | 1.52 µM (inactive) | 3.96 µM (inactive) | 1.89 µM (inactive) | 2.74 µM (inactive) | 0.619 µM (active) |
| COc1cc(-c2oc3c(OC)c(O)c(OC)c(O)c3c(=O)c2OC)ccc1O | 50.6 µM (inactive) | 20.3 µM (inactive) | 44.2 µM (inactive) | > 100 µM (inactive) | > 100 µM (inactive) | 32 µM (inactive) |  | 10.4 µM (inactive) |  | 20.7 µM (inactive) | 26.9 µM (inactive) | 94.4 µM (inactive) | 50.8 µM (inactive) | 17.8 µM (inactive) | 65.3 µM (inactive) | 44.9 µM (inactive) | 56.8 µM (inactive) | 31.6 µM (inactive) | 68.5 µM (inactive) | 46.1 µM (inactive) |
| Cn1c(=O)c2sc3cc4c(cc3c2c2ccccc21)sc1c(=O)n(C)c2ccccc2c14 | 67.5 µM (inactive) | > 100 µM (inactive) | 16.6 µM (inactive) | > 100 µM (inactive) | 57.3 µM (inactive) | > 100 µM (inactive) | 23.9 µM (inactive) | 88.1 µM (inactive) | 59.7 µM (inactive) | > 100 µM (inactive) |  | > 100 µM (inactive) | > 100 µM (inactive) | > 100 µM (inactive) | 89.3 µM (inactive) | 15.2 µM (inactive) | > 100 µM (inactive) | 74.8 µM (inactive) | 41.7 µM (inactive) | 52.4 µM (inactive) |
